According to publication PMC4521150, “Discovery of Novel Inhibitors and Fluorescent Probe Targeting NAMPT” (Scientific Reports, 2015):
Entries after “also recorded” stand apart in the source; their conditions may differ. Read-outs that look alike come from different tables or passages of the source.

Tests used:
[1] = tested on: HepG2 cells; assay: Live cell fluorescence imaging of compounds in HepG2 cells; format: cell-based, human; settings: 3 μM
Method: NAMPT knockdown in HepG2 cells was performed by transfection of NAMPT siRNA synthesized by Shanghai GenePharma Co., Ltd (Shanghai, China). The siRNA sequence targeting NAMPT corresponded to coding regions (5′-[…]-3′, 5′-[…]-3′) of the NAMPT gene. The nonspecific siRNA oligonucleotides (synthesized by Shanghai GenePharma Co., Ltd, Shanghai, China) were used as negative controls. 10 nM of NAMPT siRNA or nonspecific siRNA were transfected into HepG2 cells with Lipofectamine RNAiMax reagent (Invitrogen, CA, USA) according to the manufacturer’s instructions. After 24 or 48 hours, transfected cells were subjected to subsequent analysis.
For imaging experiment, HepG2 cells or primary hepatocytes were seeded into 35-mm glass bottom dishes (In Vitro Scientific). The following day, compounds were added to the medium at a final concentration of 3 μM. After 30 minutes, cells were rinsed twice with PBS (pH 7.5), then incubated in fresh culture medium and imaged on a fluorescence microscope (IX-71, Olympus) with a digital camera (Olympus). After 4 hours, these cells were imaged once again. Digital images were recorded and analyzed using ImageJ.

[2] = target: T1, recombinant human NAMPT (Homo sapiens, UniProt P43490); assay: NAMPT activity assay, IC50 determination (fluorometric detection of NMN derivative); settings: molecular/biochemical assay, read-out: IC50 (NAMPT inhibition)
T1 construct: His tag (N); made in house; host or cells: E. coli BL21-CodonPlus (DE3)-RIL, pET21a+ vector
Description: Using our previously established high throughput screening (HTS) platform and recombinant human NAMPT[14][15], we performed a HTS on a chemical library containing 30000 small-molecules (Chemdiv, CA, USA). Our HTS targeting NAMPT was developed based on a fluorometric method for NAMPT activity assay by measuring the fluorescence of nicotinamide mononucleotide (NMN) derivative resulting from the NAMPT enzymatic product NMN through simple chemical reactions (Fig. 1A). […] These fluorescent and non-fluorescent compounds were further studied separately.
HTS was performed using our previously reported method. 0.5 μl stock of each compound (1 mM DMSO stock) was transferred to a 96-well PCR plate for screening. In the primary screening, 5 ng NAMPT in 20 μl reaction buffer [0.4 mM phosphoribosylpyrophosphate (PRPP, Sigma), 2 mM ATP, 0.02% BSA, 2 mM DTT, 12 mM MgCl2 and 50 mM Tris-HCl (pH = 7.5)] was added into each well, the plate was incubated at 37 °C for 5 min, then 4.5 μl substrate of NAM was added to initiate the enzyme reaction, resulting in a final concentration of 2% DMSO, 2 μg/ml NAMPT, 0.2 μM NAM and 20 μM compound. After reacting at 37 °C for 15 min, the enzyme reaction was terminated by heating at 95 °C for 1 min and cooling in an ice bath. The product of NMN was detected through the following approach: after adding 10 μl 20% acetophenone in DMSO and 10 μl 2 M KOH into each well, the mixture was vortex-mixed and kept in ice bath for 2 min. […] Finally, 85 μl mixtures in each well were transferred into a flat-bottom 96-well black plate (Greiner), and the fluorescence (F) was measured using a Tecan Infinity M200 plate reader (Tecan Group Ltd.) by setting the excitation and emission wavelength to 382 nm and 445 nm respectively. The last row of each 96-well plate includes six wells of background controls and six wells of reference controls. The relative enzyme activity (Activity%) regulated by specific compound was calculated according to equation (1): […]
To determine the IC50 of inhibitors, 0.5 μl compound stocks with various concentrations were added into 96-well plate. The plate was incubated at 37 °C for 5 min after addition of 20 μl reaction buffer containing NAMPT. […] The IC50 values were determined by non-linear fitting of the concentration-dependent curves with the four-parameter IC50 logistic equation.

[3] = tested on: HepG2 cells; assay: Cell viability assay (CCK-8) in HepG2 cells; format: cell-based, human; settings: for IC50: HepG2, 48 h, CCK-8, read-out: IC50 for inhibitory effect on HepG2 cell viability
Method: Cell viability was determined by our previous method[27] using the Cell Counting Kit-8 (CCK-8, Dojindo, Japan). In human hepatocellular carcinoma cell line HepG2, cells were seeded in 96-well plate and starved for over 12 h with serum-free DMEM at 60~70% confluency, then treated with compounds or vehicle for 48 h. To determine the IC50 values of inhibitors, compounds with various concentrations were added into the 96-well plate. 10 μl CCK-8 solution was added to the culture medium and incubated at 37 °C for 1 h. The absorbance at 450 nm (A450) was detected by a plate reader. Each experiment was carried out in triplicate in three replicate wells. The IC50 values were determined by non-linear fitting of the concentration-dependent curves with the four-parameter IC50 logistic equation.

T1 sequence (P43490 whole entry): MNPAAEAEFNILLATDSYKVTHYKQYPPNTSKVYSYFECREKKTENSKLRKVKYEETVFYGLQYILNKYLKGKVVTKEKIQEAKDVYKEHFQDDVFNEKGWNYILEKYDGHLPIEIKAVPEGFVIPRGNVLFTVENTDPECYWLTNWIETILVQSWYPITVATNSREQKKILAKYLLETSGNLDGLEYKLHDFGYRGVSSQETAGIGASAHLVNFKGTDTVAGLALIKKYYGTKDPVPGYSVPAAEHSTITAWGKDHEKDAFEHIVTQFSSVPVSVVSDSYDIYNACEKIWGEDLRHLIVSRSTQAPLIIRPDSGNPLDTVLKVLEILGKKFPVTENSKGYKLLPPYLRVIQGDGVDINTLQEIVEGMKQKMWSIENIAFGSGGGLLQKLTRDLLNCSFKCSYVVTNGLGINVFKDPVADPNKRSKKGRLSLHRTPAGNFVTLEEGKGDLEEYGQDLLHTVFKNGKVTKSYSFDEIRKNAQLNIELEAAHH

IC50 [2]: 170 ± 12 nM | IC50 [3]: ~2000 nM | IC50 ([3]; Homo sapiens): 1950 ± 170 nM
Compound: CCCn1c(=O)c(-c2ccc(C(=O)NCc3cccnc3)cc2)nc2ccccc21 [M049-0244]
Cellular fluorescence in living HepG2 cells ([1]; 30 minutes incubation, washed): fluorescence was obviously detected within the cell; also recorded: significantly stained living HepG2 cells | Cellular fluorescence after NAMPT knockdown (RNAi-NAMPT) ([1]; HepG2, NAMPT siRNA vs nonspecific siRNA): significantly reduced the fluoresecence | Rescue of cell viability by exogenous NMN ([3]; HepG2, 3 μM compound, NMN at 300 μM): totally rescued | Effect on HepG2 cell viability at 1 and 10 μM ([3]; two concentrations (1 and 10 μM)): significant inhibition on HepG2 cell viability in a dose dependent manner
